Experimental data published in US20200181117A1, “SUBSTITUTED 3-HETEROARYLOXY-1H-PYRAZOLES AND SALTS THEREOF AND THEIR USE AS HERBICIDAL ACTIVE SUBSTANCES” (BAYER CROPSCIENCE AKTIENGESELLSCHAFT, priority 2017, published 2020).

Experiments:
Assay type in all cases: in vivo
[1] = tested on: Polygonum convolvulus; experiment: Post-emergence herbicidal action; settings: 1280 g/ha, rated visually after about 3 weeks vs untreated controls
In short: (§1)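 Visual % activity versus untreated controls (100% = plants died, 0% = like controls), scored about 3 weeks after a foliar spray. Greenhouse plants in sandy loam were treated at one-leaf stage with 1280 g/ha in aqueous spray containing 0.5% additive, 600 l/ha.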

[2] = tested on: Setaria viridis; experiment: Post-emergence herbicidal action; settings: 1280 g/ha, rated visually after about 3 weeks vs untreated controls
In short: as §1

[3] = tested on: Stellaria media; experiment: Post-emergence herbicidal action; settings: 1280 g/ha, rated visually after about 3 weeks vs untreated controls
In short: as §1

[4] = tested on: Viola tricolor; experiment: Post-emergence herbicidal action; settings: 1280 g/ha, rated visually after about 3 weeks vs untreated controls
In short: as §1

[5] = tested on: Abutilon theophrasti; experiment: Pre-emergence herbicidal action; settings: 1280 g/ha, scored visually after about 3 weeks vs untreated controls
In short: (§2)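 Test compounds at 1280 g/ha are sprayed onto soil covering freshly sown seeds, using 600 l/ha water with 0.5% additive. Pots stay in the greenhouse about 3 weeks, then activity is rated visually in percent against untreated controls.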

[6] = tested on: Alopecurus myosuroides; experiment: Pre-emergence herbicidal action; settings: 1280 g/ha, scored visually after about 3 weeks vs untreated controls
In short: as §2

[7] = tested on: Amaranthus retroflexus; experiment: Pre-emergence herbicidal action; settings: 1280 g/ha, scored visually after about 3 weeks vs untreated controls
In short: as §2

[8] = tested on: Echinochloa crus-galli; experiment: Pre-emergence herbicidal action; settings: 1280 g/ha, scored visually after about 3 weeks vs untreated controls
In short: as §2

[9] = tested on: Lolium rigidum; experiment: Pre-emergence herbicidal action; settings: 1280 g/ha, scored visually after about 3 weeks vs untreated controls
In short: as §2

[10] = tested on: Matricaria inodora; experiment: Pre-emergence herbicidal action; settings: 1280 g/ha, scored visually after about 3 weeks vs untreated controls
In short: as §2

[11] = tested on: Pharbitis purpurea; experiment: Pre-emergence herbicidal action; settings: 1280 g/ha, scored visually after about 3 weeks vs untreated controls
In short: as §2

[12] = tested on: Polygonum convolvulus; experiment: Pre-emergence herbicidal action; settings: 1280 g/ha, scored visually after about 3 weeks vs untreated controls
In short: as §2

[13] = tested on: Setaria viridis; experiment: Pre-emergence herbicidal action; settings: 1280 g/ha, scored visually after about 3 weeks vs untreated controls
In short: as §2

[14] = tested on: Stellaria media; experiment: Pre-emergence herbicidal action; settings: 1280 g/ha, scored visually after about 3 weeks vs untreated controls
In short: as §2

[15] = tested on: Veronica persica; experiment: Pre-emergence herbicidal action; settings: 1280 g/ha, scored visually after about 3 weeks vs untreated controls
In short: as §2

[16] = tested on: Viola tricolor; experiment: Pre-emergence herbicidal action; settings: 1280 g/ha, scored visually after about 3 weeks vs untreated controls
In short: as §2

[17] = tested on: Abutilon theophrasti; experiment: Post-emergence herbicidal action; settings: 1280 g/ha, rated visually after about 3 weeks vs untreated controls
In short: as §1

[18] = tested on: Amaranthus retroflexus; experiment: Post-emergence herbicidal action; settings: 1280 g/ha, rated visually after about 3 weeks vs untreated controls
In short: as §1

[19] = tested on: Avena fatua; experiment: Pre-emergence herbicidal action; settings: 1280 g/ha, scored visually after about 3 weeks vs untreated controls
In short: as §2

[20] = tested on: Hordeum murinum; experiment: Pre-emergence herbicidal action; settings: 1280 g/ha, scored visually after about 3 weeks vs untreated controls
In short: as §2

[21] = tested on: Alopecurus myosuroides; experiment: Post-emergence herbicidal action; settings: 1280 g/ha, rated visually after about 3 weeks vs untreated controls
In short: as §1

[22] = tested on: Echinochloa crus-galli; experiment: Post-emergence herbicidal action; settings: 1280 g/ha, rated visually after about 3 weeks vs untreated controls
In short: as §1

[23] = tested on: Pharbitis purpurea; experiment: Post-emergence herbicidal action; settings: 1280 g/ha, rated visually after about 3 weeks vs untreated controls
In short: as §1

[24] = tested on: Veronica persica; experiment: Post-emergence herbicidal action; settings: 1280 g/ha, rated visually after about 3 weeks vs untreated controls
In short: as §1

| Structure (SMILES) | herbicidal activity on Polygonum convolvulus [1] [%] | herbicidal activity on Setaria viridis [2] [%] | herbicidal activity on Stellaria media [3] [%] | herbicidal activity on Viola tricolor [4] [%] | herbicidal activity on Abutilon theophrasti [5] [%] | herbicidal activity on Alopecurus myosuroides [6] [%] | herbicidal activity on Amaranthus retroflexus [7] [%] | herbicidal activity on Echinochloa crus-galli [8] [%] | herbicidal activity on Lolium rigidum [9] [%] | herbicidal activity on Matricaria inodora [10] [%] | herbicidal activity on Pharbitis purpurea [11] [%] | herbicidal activity on Polygonum convolvulus [12] [%] | herbicidal activity on Setaria viridis [13] [%] | herbicidal activity on Stellaria media [14] [%] | herbicidal activity on Veronica persica [15] [%] | herbicidal activity on Viola tricolor [16] [%] | herbicidal activity on Abutilon theophrasti [17] [%] | herbicidal activity on Avena fatua [19] [%] | herbicidal activity on Hordeum murinum [20] [%] | herbicidal activity on Alopecurus myosuroides [21] [%] | further results |
| --- | --- | --- | --- | --- | --- | --- | --- | --- | --- | --- | --- | --- | --- | --- | --- | --- | --- | --- | --- | --- | --- |
| CCn1cc(Sc2ccc(F)cc2)c(Oc2ncc(F)cn2)n1 [Example I-211] | 100 | 90 | 100 | 80 | 90 | 90 | 100 | 90 | 100 | 90 | 80 | 90 | 100 | 100 | 100 | 100 |  |  |  |  |  |
| COc1cnc(Oc2nn(C)c(C)c2Sc2ccc(F)cc2F)nc1 [Example I-205] |  | 80 |  | 90 | 100 | 100 | 100 | 100 | 100 | 100 | 100 | 100 | 100 | 100 | 100 | 100 | 90 | 100 | 100 |  | herbicidal activity on Amaranthus retroflexus [18]: 90% |
| Fc1ccc(Sc2c(Oc3ncc(F)cn3)nn3c2CCOCC3)cc1 [Example I-122] | 100 | 100 | 90 | 90 | 100 | 100 | 100 | 100 |  | 100 |  | 100 | 100 | 100 | 100 | 100 | 100 | 80 | 90 | 90 | herbicidal activity on Echinochloa crus-galli [22]: 90%; herbicidal activity on Pharbitis purpurea [23]: 90%; herbicidal activity on Veronica persica [24]: 90% |
| Fc1ccc(Sc2c(Oc3ncccn3)nn3c2CCOCC3)c(F)c1 [Example I-163] | 100 | 90 | 80 | 90 | 100 | 90 | 90 | 100 |  | 100 |  | 100 | 100 | 90 | 90 | 100 | 90 |  | 90 | 90 | herbicidal activity on Echinochloa crus-galli [22]: 90%; herbicidal activity on Pharbitis purpurea [23]: 90%; herbicidal activity on Veronica persica [24]: 80% |
